Read-outs that look alike come from different tables or passages of the source.

The subject of assay [1] is EMT protein markers α-SMA, Vimentin, ZEB-1 and Slug. The assay can be described thus: EMT protein marker Western blot, TGF-β1-treated MDA-MB-231 cells. The conditions noted are these: MDA-MB-231, with TGF-β1; FIG. 7A. It counts as cell-based, human. On the procedure:
(§1) The culture medium of the breast cancer cell line of Experimental Method 1 was replaced with a serum-free medium. Then, the cells were treated with 2 ng/mL of TGF-β1 and the compound of Preparation Example 6 and cultured for 20 to 24 hours. Thereafter, as described in Experimental Method 3, the expression level of the protein was measured using an antibody specific for the EMT-related protein.

Assay [2] deals with secreted MMP2 and MMP9. In words: Secreted MMP2 and MMP9 levels, TGF-β1-treated BT549 cells. To be noted: BT549, with TGF-β1; FIG. 7B. It counts as cell-based, human. The protocol:
as §1

Assay [3] has as its system p-AMPK (Thr172). In words: AMPK activation by p-AMPK (Thr172) Western blot in brain cancer cell lines. The assay is classed as cell-based, human. To be noted: 10 μM, 12 hours, compared to untreated group. The protocol: [3-2] The three breast cancer cell lines (4T1, BT549, and MDA-MB-231) of Experimental Method 1 were treated with each of the compound of Production Example 6 and 13 compounds, including the compounds of Production Examples 1 to 5 and 8 to 15 having a similar structure (YE-01, 02, 03, 04, 05, 08, 09, 10, 11, 12, 13, 14 and 15), at a concentration of 10 μM, and then cultured for 24 hours. In addition, each of two types of gastric cancer cell lines, brain cancer cell lines and pancreatic cancer cell lines was treated with the compound of Production Example 6 or the compound of Production Example 8 having a similar structure at a concentration of 10 μM and then cultured for 12 hours. Thereafter, the cells were harvested and lysed in RIPA buffer, and the protein was electrophoresed by SDS-PAGE, and then the expression level of the protein was analyzed using antibodies specific for AMPK and phospho-AMPK (Thr172). GAPDH or β-actin was used as a loading control for protein quantification.

Assay [4] concerns MDA-MB-231 cell line. In words: Cell viability assay (WST-1). The assay is classed as cell-based. The conditions noted are these: Homo sapiens, MDA-MB-231, 24 h, read-out: cancer cell viability inhibited. On the procedure: (§2) [4-1-1] The breast cancer cell line of Experimental Method 1 was treated with 5-aminoimidazole-4-carboxamide ribonucleotide (AICAR) (which is not the compound of Production Example 6) or the compound of Production Example 6 at a concentration of 0 to 30 μM, and then cultured for 24 hours, 48 hours and 72 hours. Thereafter, the cultured cells were treated with WST-1 reagent, and then the absorbance at a wavelength of 450 nm was measured. Here, the WST-1 reagent allows the cell viability to be measured by changing the color of the culture medium depending on the level of the mitochondrial dehydrogenase present in the cell.
(§3) [4-1-2] The breast cancer cell line 4T1, BT549 or MDA-MB-231 of Experimental Method 1 was treated with each of the compound of Production Example 6 and 13 compounds, including the compounds of Production Examples 1 to 5 and 8 to 15 having a similar structure (YE-01, 02, 03, 04, 05, 08, 09, 10, 11, 12, 13, 14 and 15), at a concentration of 0 to 50 μM, and then cultured for 24 hours. Each of three types of gastric cancer cell lines, brain cancer cell lines and pancreatic cancer cell lines was treated with the compound of Production Example 6 or the compound of Production Example 8 having a similar structure at a concentration of 0 to 50 μM, and then cultured for 24 hours. Thereafter, the cultured cells were treated with WST-1 reagent according to the manufacturer's instruction, and after a certain time, the absorbance at a wavelength of 450 nm was measured. Here, the WST-1 reagent allows the cell viability to be measured by changing the color of the culture medium depending on the level of the mitochondrial dehydrogenase present in the cell.

For assay [5], the system named is 4T1 cell line. The assay can be described thus: Cell viability assay (WST-1). The assay is classed as cell-based. To be noted: Mus musculus. The protocol: as §2, §3
The subject of assay [6] is BT549 cell line. In words: Cell viability assay (WST-1). The assay is classed as cell-based. To be noted: Homo sapiens. The protocol:
as §2, §3

Assay [7] has as its system 4T1-luc orthotopic graft (fat pad, s.c.). The assay can be described thus: Tumor (lung) metastasis in orthotopic animal model, IVIS luminescence. The assay is classed as in vivo, mouse. The conditions noted are these: 20 mg/kg intraperitoneal at 2-day intervals; compared to Vehicle; FIG. 9A, 9B. From the text: After 4-week-old athymic nude mice (female) were purchased, only healthy mice were selected while the mice were adapted to the environment of the animal breeding room for 7 days. For identification of each mouse, the ears were marked using an ear punch. In addition, the breeding box was identified by attaching a mouse identification card describing the test number, test substance name, test item, receipt date, test date, test content, and the person in charge of the test. The environment of the animal breeding room was maintained at a temperature of 22±3° C., a relative humidity of 50±20%, 10 to 15 ventilations/hour, a 12-hour light (8:30 to 20:30)/dark cycle, and an illuminance of 150 to 300 lux. In addition, the animals were fed feed and drinking water during the breeding period, and quarantined during the acclimatization and testing periods. […]
During a period ranging from the day the mouse breast cancer cell line 4T1-luc cell line was injected to the end of the experiment (dissection date), lung metastasis of the cancer cell line was checked at intervals of 1 to 2 days. After the animal model was anesthetized by inhalation with 2.5% isoflurane, luminescence intensity was measured using an in-vivo imaging system (IVIS). […]

Assay [8] concerns EMT protein markers α-SMA, Vimentin, ZEB-1 and Slug. In words: EMT protein marker Western blot, TGF-β1-treated 4T1 cells. The assay is classed as cell-based, mouse. To be noted: 4T1, with TGF-β1; FIG. 7A. On the procedure:
as §1

`COc1ccc(OC)c(/C=C/C(=O)c2ccc(NS(=O)(=O)c3ccc(Cl)cc3)cc2)c1` [Production Example 6, (E)-4-chloro-N-(4-(3-(2,5-dimethoxyphenyl)acryloyl)phenyl)benzenesulfonamide]: the Slug protein result in assay [1] and in assay [8] was “decreased” in each case. In addition, the Vimentin protein result in assay [1] and in assay [8] was “decreased” each time. The ZEB-1 protein entry in assay [1] and in assay [8] was “decreased” in each case. The α-SMA protein result in assay [1] and in assay [8] was “decreased” throughout. The “level of secreted MMP2” value in assay [2] is “significantly decreased”. The “level of secreted MMP9” value in assay [2] was “significantly decreased”. Further, the “expression of p-AMPK” value in assay [3] is “increased”. Also, the cytotoxicity at 10 µM was no less than 50% in assay [4]; no less than 50% in assay [5] (4T1, 24 h, read-out: cancer cell viability inhibited); no less than 50% in assay [5] (4T1, read-out: cell viability inhibited); no less than 50% in assay [6] (BT-549, 24 h, read-out: cancer cell viability inhibited); no less than 50% in assay [6] (BT-549, read-out: cell viability inhibited). Further, the “luminescence intensity in the lung (4T1-luc lung metastasis)” value in assay [7] is “significantly decreased”.

Source of the values: patent US12447137B2, “Composition for prevention, amelioration, or treatment of cancer” (EWHA UNIVERSITY—INDUSTRY COLLABORATION FOUNDATION, priority 2019, dated 2025).
